According to the NIST ThermoML archive (doi:10.1021/acs.jced.7b00609):
± gives the expanded uncertainty stated by the source.

Assay: wn = mass fraction of the nth substance listed
Conditions: 100 kPa, Liquid, Pycnometric method

mass density (283.15 K, w1 = 0.1527) [kg/m3]	mass density (293.15 K, w1 = 0.2052) [kg/m3]	mass density (303.15 K, w1 = 0.2653) [kg/m3]	mass density (283.15 K, w1 = 0.0851) [kg/m3]	mass density (293.15 K, w1 = 0.1354) [kg/m3]	mass density (303.15 K, w1 = 0.21) [kg/m3]	Structure (SMILES)
1052.8 ± 14	1056.2 ± 14	1057.1 ± 14	–	–	–	CC1=CC(=O)c2ccccc2C1=O [2-methyl-1,4-naphthalenedione] + C1COCCO1
–	–	–	1052.7 ± 14	1059.7 ± 14	1061.9 ± 14	O=C1OC(=O)c2ccccc21 [isobenzofuran-1,3-dione] + C1COCCO1
